Test results: patent US9826773B2, “Brazzen multiple variants of increased sweetness, and production method for same” (CHUNG-ANG UNIVERSITY INDUSTRY—ACADEMIC COOPERATION …, priority 2012, dated 2017)

Legend:
[1] = system: human gustatory system; test: Measurement of sweetness activity using the human gustatory system (threshold of initially sensing sweetness); assay type: in vivo; settings: for Level of sweetness compared to sucrose (g/g): mass basis; for Level of sweetness compared to sucrose (g/g) / Level of sweetness compared to sucrose (molecular): sucrose = 1; for Level of sweetness compared to sucrose (molecular): molar basis; for times as sweet as sucrose in the same mass: rounded values of the text; for times as sweet as the wild-type brazzein in the same mass: relative to wild-type brazzein
Description: Since brazzein is not a sugar but a protein, sweetness may not be measured using a saccharimeter. Consequently, the activity was measured using the human gustatory system. Since the threshold values of initially sensing sweetness are different per person, the activity was measured by comparing the concentrations of initially sensing sweetness between a sugar solution and a brazzein solution. The subjects were composed of 10 men and 10 women, who were trained in advance. First, the standard sugar solution was sequentially tasted, and the concentration of initially sensing sweetness was checked. Brazzein was dissolved in distilled water (10.0 mg/mL) and diluted to set the concentration to 1 to 20 ng/mL, and the sweetness of the solution was tasted and the concentration of sensing sweetness as the threshold value was checked to measure the relative activity of sweetness among sugar, wild-type brazzein, and a brazzein variant. Specifically, the activity was measured as follows. Before the activity was measured, the subject was informed in advance of the test date and time to sense the taste in tiptop conditions, and was prohibited from drinking alcohol the day before the test date and eating food immediately before the test. The subject washed the palate with bottled water prepared, and then a sample according to the concentration of each kind was tasted in each of an amount of 100 μl sequentially from a low concentration to a high concentration. The resulting data were obtained by discarding dubious values through the Q test, minimizing the standard deviation, and calculating the average.

[2] = cited from earlier work; for thermal stability: background statement
[3] = same threshold expressed in molar concentration
[4] = trained panel of 10 men and 10 women, concentration of initially sensing sweetness, 100 μl samples tasted from low to high concentration

Row | Compound | Level of sweetness compared to sucrose (g/g) [1] | Level of sweetness compared to sucrose (molecular) [1] | times as sweet as sucrose in the same mass [1] | times as sweet as the wild-type brazzein in the same mass [1] | Threshold value of sweetness experiment [1, 3] | Threshold value of sweetness experiment [1, 4] | thermal stability [2] | solubility and pH stability in water ([2]; Gao et al. 1999)
1 | K4E_H30R_E35D_E40R: brazzein multiple variant, 4th Lys to Glu in tertiary variant H30R_E35D_E40R, SEQ ID NO. 21 (DKCEKVYENYPVSKCQLANQCNYDCKLAKRARSGDCFYDRKRNLQCICDYCEY; Brazzein Variant) | 1,818,181 | 33761273 | 1,800,000 times | 2,270 times | 0.00172 µM | 0.0000011 g (100 mL)^−1 |  | 
2 | WT-Brazzein: wild-type brazzein, molecular weight 6501 in Table 3 (QDKCKKVYENYPVSKCQLANQCNYDCKLDKHARSGECFYDEKRNLQCICDYCEY; UniProt P56552 1-54, looked up) [reference compound] | 800 | 15,082 |  |  | 3.846 µM | 0.0025 g (100 mL)^−1 |  | 
3 | K4E_H30R_E35D_E40A: brazzein multiple variant, 4th Lys to Glu in tertiary variant H30R_E35D_E40A, SEQ ID NO. 15 (DKCEKVYENYPVSKCQLANQCNYDCKLAKRARSGDCFYDAKRNLQCICDYCEY; Brazzein Variant) | 2,000,000 | 36708861 | 2,000,000 times | 2,500 times | 0.00158 µM | 0.0000010 g (100 mL)^−1 |  | 
4 | Monellin |  |  |  |  |  |  | low thermal stability | 
5 | K4R_H30R_E35D_E40K: brazzein multiple variant, 4th Lys to Arg in tertiary variant H30R_E35D_E40K, SEQ ID NO. 13 (DKCRKVYENYPVSKCQLANQCNYDCKLAKRARSGDCFYDKKRNLQCICDYCEY; Brazzein Variant) | 2,000,000 | 37131600 | 2,000,000 times | 2,500 times | 0.00156 µM | 0.0000010 g (100 mL)^−1 |  | 
6 | K4E_H30R_E35D_E40K: brazzein multiple variant, 4th Lys to Glu in tertiary variant H30R_E35D_E40K, SEQ ID NO. 12 (DKCEKVYENYPVSKCQLANQCNYDCKLAKRARSGDCFYDKKRNLQCICDYCEY; Brazzein Variant) | 1,666,666 | 30812500 | 1,700,000 times | 2,080 times | 0.00188 µM | 0.0000012 g (100 mL)^−1 |  | 
7 | K4R_H30R_E35D_E40D: brazzein multiple variant, 4th Lys to Arg in tertiary variant H30R_E35D_E40D, SEQ ID NO. 19 (DKCRKVYENYPVSKCQLANQCNYDCKLAKRARSGDCFYDDKRNLQCICDYCEY; Brazzein Variant) | 1,666,666 | 30860187 | 1,700,000 times | 2,080 times | 0.00188 µM | 0.0000012 g (100 mL)^−1 |  | 
8 | K4D_H30R_E35D_E40K: brazzein multiple variant, 4th Lys to Asp in tertiary variant H30R_E35D_E40K, SEQ ID NO. 11 (DKCDKVYENYPVSKCQLANQCNYDCKLAKRARSGDCFYDKKRNLQCICDYCEY; Brazzein Variant) | 1,598,481 | 28379848 | 1,500,000 times | 1,920 times | 0.00204 µM | 0.0000013 g (100 mL)^−1 |  | 
9 | K4D_H30R_E35D_E40R: brazzein multiple variant, 4th Lys to Asp in tertiary variant H30R_E35D_E40R, SEQ ID NO. 20 (DKCDKVYENYPVSKCQLANQCNYDCKLAKRARSGDCFYDRKRNLQCICDYCEY; Brazzein Variant) | 1,818,181 | 33687455 | 1,800,000 times | 2,270 times | 0.00172 µM | 0.0000011 g (100 mL)^−1 |  | 
10 | K4R_H30R_E35D_E40A: brazzein multiple variant, 4th Lys to Arg in tertiary variant H30R_E35D_E40A, SEQ ID NO. 16 (DKCRKVYENYPVSKCQLANQCNYDCKLAKRARSGDCFYDAKRNLQCICDYCEY; Brazzein Variant) | 2,857,143 | 52727273 | 2,900,000 times | 3,570 times | 0.0011 µM | 0.0000007 g (100 mL)^−1 |  | 
11 | K4E_H30R_E35D_E40D: brazzein multiple variant, 4th Lys to Glu in tertiary variant H30R_E35D_E40D, SEQ ID NO. 18 (DKCEKVYENYPVSKCQLANQCNYDCKLAKRARSGDCFYDDKRNLQCICDYCEY; Brazzein Variant) | 1,250,000 | 23062250 | 1,250,000 times | 1,560 times | 0.00251 µM | 0.0000016 g (100 mL)^−1 |  | 
12 | K4R_H30R_E35D_E40R: brazzein multiple variant, 4th Lys to Arg in tertiary variant H30R_E35D_E40R, SEQ ID NO. 22 (DKCRKVYENYPVSKCQLANQCNYDCKLAKRARSGDCFYDRKRNLQCICDYCEY; Brazzein Variant) | 2,000,000 | 37284000 | 2,000,000 times | 2,500 times | 0.00156 µM | 0.0000010 g (100 mL)^−1 |  | 
13 | K4D_H30R_E35D_E40A: brazzein multiple variant, 4th Lys to Asp in tertiary variant H30R_E35D_E40A, SEQ ID NO. 14 (DKCDKVYENYPVSKCQLANQCNYDCKLAKRARSGDCFYDAKRNLQCICDYCEY; Brazzein Variant) | 2,000,000 | 36708861 | 2,000,000 times | 2,500 times | 0.00158 µM | 0.0000010 g (100 mL)^−1 |  | 
14 | OC[C@H]1O[C@@](CO)(O[C@H]2O[C@H](CO)[C@@H](O)[C@H](O)[C@H]2O)[C@@H](O)[C@@H]1O [Sucrose, reference compound] | 1 | 1 |  |  | 58,000 μM | 2.0 g (100 mL)^−1 |  | 
15 | Brazzein: sweetener protein extracted from the fruit of Pentadiplandra brazzeana (Baillon) (QDKCKKVYENYPVSKCQLANQCNYDCKLDKHARSGECFYDEKRNLQCICDYCEY; UniProt P56552 1-54, looked up) |  |  |  |  |  |  | very high thermal stability | very high solubility and pH stability
16 | K4D_H30R_E35D_E40D: brazzein multiple variant, 4th Lys to Asp in tertiary variant H30R_E35D_E40D, SEQ ID NO. 17 (DKCDKVYENYPVSKCQLANQCNYDCKLAKRARSGDCFYDDKRNLQCICDYCEY; Brazzein Variant) | 1,333,333 | 24545600 | 1,300,000 times | 1,670 times | 0.00236 µM | 0.0000015 g (100 mL)^−1 |  | 
